Measured values: patent publication US20240415845A1, “Compositions of Iboga Alkaloids and Methods of Treatment” (priority 2022, published 2024)
Several values for one entry are separate records, joined by “and”; a condition that tells them apart may be missing. Equal entries are not always repeated.

Key:
[1] = system: special operations veterans with combat and/or blast exposure; test: World Health Organization Disability Assessment Schedule 2.0 (WHODAS 2.0); format: in vivo, human; conditions: for WHODAS 2.0 Total, effect size D (Cohen's D) / WHODAS 2.0 Total score: all participants; for WHODAS 2.0 Total score: baseline 30.2 ± 14.7, mean ± SD; for WHODAS 2.0 Self Care subscale: baseline 5.2% ± 9.2%; for WHODAS 2.0 Mobility subscale: baseline 14.7% ± 15.7%; for WHODAS 2.0 Interpersonal subscale: baseline 32.3% ± 20.4; for WHODAS 2.0 Community Participation subscale: baseline 35.6% ± 21.1%; for WHODAS 2.0 Cognition subscale: baseline 36.1% ± 14.6%; for WHODAS 2.0 Life Activities subscale: baseline 41.1% ± 24.8%
From the text: The pre-specified primary outcome was change in the World Health Organization Disability Assessment Schedule 2.0 (WHODAS) (Gold L. H. et al., J. Am. Acad. Psychiatry Law 42, 9 (2014)) from baseline to post-treatment, with change from baseline to the one-month follow-up a secondary outcome. Additional pre-specified secondary outcomes included post-treatment changes on the Clinician Administered PTSD Scale (CAPS-5; Weathers, F. W. et al., Psychol. Assess., 30, 383-395 (2018)), Montgomery-Åsberg Depression Rating Scale (MADRS; Montgomery, S. A., Br. J. Psychiatry J. Ment. Sci., 134, 382-389 (1979)) and the Hamilton-Anxiety Rating Scale (HAM-A; Bruss, G. S., et al., Psychiatry Res., 53, 191-202 (1994)). […] An additional dose of magnesium was administered approximately 12 hours later. To assess the significance of post-treatment changes, linear mixed effects (LME) models were used for each outcome measure. False Discovery Rate (FDR; Benjamini, Y. et al., J. R. Stat. Soc. Ser. B Methodol., 57, 289-300 (1995)) was applied to correct for multiple comparisons.
With subjects in the fasting state, an intravenous infusion of 1 gram of magnesium sulfate was administered 1-2 hours prior to treatment. […] Medical staff (MD, RN, or EMT) were onsite at a ratio of at least 1 staff per 2 patients throughout treatment for monitoring and management, but no specific coaching or psychological support was provided during treatment.
Post treatment, each subject was assessed four days after treatment, one month after treatment, and, if willing, one year after treatment. The post-treatment assessments conducted at four days and at one month after treatment included neuropsychological testing, measures of PTSD, depression, anxiety, mystical experiences, functional imaging and EEG. Post-treatment assessments conducted at one year after treatment included PTSD, depression, and anxiety measures.
World Health Organization Disability Assessment Scale 2.0 (WHODAS 2.0) was used as a measure of function. WHODAS was used to assess the impact of health conditions across six life domains (cognition, mobility, self-care, interpersonal, life activities, and community participation) and it is sensitive to change over time (Gold, L. H., J. Am. Acad. Psychiatry Law 42, 9 (2014). Each item in the assessment is rated on a scale ranging from no problems to extreme problems (Üstün, T. B. et al., Measuring health and disability: Manual for WHO disability assessment schedule WHODAS 2.0. (World Health Organization, 2010)). To capture inter-individual variability in disability the WHODAS complex scoring method was used. Raw scores were converted to a metric ranging from 0(no disability) to 100 (full disability), by calculating the ratio of the participant's score relative to the maximum possible score in each domain as well as to the total score (Id.). A score of 20%-39% was considered mild, 40%-59% was moderate, 60%-79% was moderate-severe and 80%-100% was severe. Scores from baseline were compared to scores from one-month post treatment.
A measure of disability for health and disability on life functions is the World Health Organization Disability Assessment Schedule 2.0 (WHODAS). The items are designed to be sensitive to change due to a treatment, and the measure assesses disability over the past 30 days. The items measured are cognition, self-care, mobility, getting along. life activity, and participation in society. The WHODAS measure gives a rating of 1 for no disability, 2 for mild disability and 3 for moderate disability. FIG. 7A is a graph showing results from the World Health Organization Disability Assessment Scale 2.0 (WHODAS 2.0) assessment for each subject at baseline (prior to treatment), about one week after treatment, and one month after treatment. The dashed line represents the means of the individual scores. FIG. 7B is a bar graph of self-reported disability using the WHODAS total scores at baseline and one-month after treatment.

[2] = system: special operations veterans with combat and/or blast exposure; test: Moral Injury Symptom Scale (MISS); format: in vivo, human
From the text: A Moral Injury Symptom Scale (MISS) was also used to assess the subjects before and one month after treatment. Moral injury is when one acts in a manner or witnesses behaviors that go against an individual's values and moral beliefs. This may include betrayal by leadership or peers with adverse outcomes. Symptoms include guilt, remorse, shame, disgust, anger, inability to forgive oneself, engaging in self-sabotaging behaviors, such as feeling undeserving, affecting work and relationships, and questioning spirituality. The MISS is a multidimensional measure to assess the severity of moral injury symptoms. Possible score range is 45-450, with higher scores indicating more severe moral injury (Koenig et al., J. Relig Health, 57:249-265 (2018)).

[3] = system: special operations veterans with combat and/or blast exposure; conditions: in vivo

## CCC1CC2CC3c4[nH]c5ccc(OC)cc5c4CCN(C2)C13 (centres unmarked) [ibogaine, Ibogaine]
[1]; baseline vs one-month
  WHODAS 2.0 Cognition subscale, effect size D: 2.38
  WHODAS 2.0 Community Participation subscale, effect size D: 1.78
  WHODAS 2.0 Interpersonal subscale, effect size D: 1.63
  WHODAS 2.0 Life Activities subscale, effect size D: 1.44
  WHODAS 2.0 Mobility subscale, effect size D: 0.83
  WHODAS 2.0 Self Care subscale, effect size D: 0.51
[1]; baseline vs one-month post
  WHODAS 2.0 Total, effect size D (Cohen's D): 2.20
[1]; baseline vs one-week post
  WHODAS 2.0 Total, effect size D (Cohen's D): 0.74
[1]; baseline vs post-treatment
  WHODAS 2.0 Cognition subscale, effect size D: 0.96
  WHODAS 2.0 Community Participation subscale, effect size D: 0.53
  WHODAS 2.0 Interpersonal subscale, effect size D: 0.60
  WHODAS 2.0 Life Activities subscale, effect size D: 0.48
  WHODAS 2.0 Mobility subscale, effect size D: 0.53
  WHODAS 2.0 Self Care subscale, effect size D: 0.37
[1]; one-month post treatment, baseline about 2.5 (FIG. 7B)
  self-reported disability WHODAS total score (rating 1 no, 2 mild, 3 moderate disability): over 1
[1]; one-month post
  WHODAS 2.0 Total score: 5.1
[1]; one-month
  WHODAS 2.0 Self Care subscale: 1.0% ±
  WHODAS 2.0 Mobility subscale: 1.3% ±
  WHODAS 2.0 Interpersonal subscale: 4.8% ±
  WHODAS 2.0 Community Participation subscale: 5.9% ±
  WHODAS 2.0 Cognition subscale: 5.0% ±
  WHODAS 2.0 Life Activities subscale: 9.1% ±
[1]; one-week post
  WHODAS 2.0 Total score: 19.9
[1]; post-treatment
  WHODAS 2.0 Self Care subscale: 1.9% ±
  WHODAS 2.0 Mobility subscale: 7.2% ±
  WHODAS 2.0 Interpersonal subscale: 21.7% ±
  WHODAS 2.0 Community Participation subscale: 24.7% ±
  WHODAS 2.0 Cognition subscale: 19.2% ±
  WHODAS 2.0 Life Activities subscale: 31.6% ±
[2]; FIG. 6B
  subjects showing a reduction in moral injury score: 88%
[2]; one month after treatment vs baseline
  MISS effect size: 1.14
[2]; one month after treatment, baseline about 220, score range 45-450
  average moral injury symptoms score (MISS): about 140
[3]
  Cognitive Flexibility Composite (average of D-KEFS TMT Condition 4, Color/Word Interference Condition 4, Verbal Fluency Category Switching) score: 56.6 ± 5.7 T score and 59.3 ± 5.0 T score
  Cognitive Flexibility Composite, effect size D: 0.74 and 0.43
  Cognitive Inhibition (D-KEFS Color/Word Interference, Condition 3) score: 59.9 ± 6.4 T score and 59.9 ± 7.5 T score
  Cognitive Inhibition (D-KEFS Color/Word Interference, Condition 3), effect size D: 1.22 and 0.62
  Detection (CPT-3 Detection) score: 41.2 ± 8.2 T score and 39.5 ± 7.5 T score
  Detection (CPT-3 Detection), effect size D: 0.86 and 1.05
  Phonemic Fluency (D-KEFS Verbal Fluency) score: 60.8 ± 10.3 T score and 64.0 ± 10.1 T score
  Problem Solving (D-KEFS TT, Total Achievement Score) score: 59.1 ± 7.1 T score and 59.5 ± 7.9 T score
  Problem Solving (D-KEFS TT, Total Achievement Score), effect size D: 0.44 and 0.49
  Reaction Time (CPT-3 Reaction Time) score: 44.1 ± 6.8 T score and 46.4 ± 8.1 T score
  Reaction Time (CPT-3 Reaction Time), effect size D: 0.52 and 0.29
  Semantic Fluency (D-KEFS Verbal Fluency) score: 60.2 ± 12.2 T score and 63.6 ± 7.8 T score
  Sustained Attention (CPT-3 Hit Reaction Time Block Change) score: 50.8 ± 7.9 T score and 51.2 ± 7.7 T score
  Verbal Memory (HVLT-R) score: 49.0 ± 9.2 T score and 53.1 ± 8.8 T score
  Visuospatial Memory (BVMT-R) score: 58.8 ± 7.1 T score and 58.3 ± 6.6 T score
  Visuospatial Memory (BVMT-R), effect size D: 0.32 and 0.50
  adverse effect on processing speed, individual D-KEFS results: no indication of an adverse effect
  declines across any neuropsychological performance domain: No declines
  executive functioning (inhibition, cognitive flexibility, problem-solving, phonemic fluency, working memory), effect sizes D: 0.31-1.22
  performance changes in language (semantic fluency): No significant performance changes
  processing speed, effect sizes D: 0.97-1.34
  slowing of reaction time, effect sizes D: 0.29-0.52
  sustained attention accuracy (detection), effect sizes D: 0.86-1.05
[3]; iv
  Processing Speed (PSI, WAIS-IV) score: 59.2 ± 9.7 T score and 61.6 ± 10.7 T score
  Processing Speed (PSI, WAIS-IV), effect size D: 0.97 and 1.34
  Working Memory (WMI, WAIS-IV) score: 57.0 ± 9.5 T score and 57.6 ± 9.2 T score
  Working Memory (WMI, WAIS-IV), effect size D: 0.37 and 0.31
